Test results published in patent US20230157998A1, “Methods of Inhibiting SARS-CoV-2 Replication and Treating Corona Virus Disease 2019” (Pfizer Inc., priority 2020, published 2023).
≈ marks a conversion by molar mass, not a printed value. Where “and” joins values, the source holds several entries; their conditions need not be identical. Equal entries are not always repeated. Where two headings read alike, the source gives them in different places.

Tests used:
[1] = biological target: NL63-CoV 3CLpro (Human coronavirus NL63, UniProt P0C6X5); experiment: FRET protease activity assay; format: biochemical; details: Alpha-CoV; [E]T 170 ± 4 nM
[2] = biological target: 229E-CoV-2 3CLpro (Human coronavirus 229E, UniProt P0C6X1); experiment: FRET protease activity assay; format: biochemical; details: Alpha-CoV; [E]T 118 ± 3 nM
[3] = biological target: Human Cathepsin B (Homo sapiens, UniProt P07858); experiment: Protease panel; format: biochemical
[4] = biological target: Human Elastase (Homo sapiens, UniProt P08246); experiment: Protease panel; format: biochemical
[5] = system: Human Chymotrypsin; experiment: Protease panel; format: biochemical
[6] = system: SARS-CoV-2 Washington strain 1; experiment: Cytopathic effect (CPE) assay in VeroE6-enACE2 cells; format: cell-based
[7] = system: HCOV-229E; experiment: Antiviral activity in MRC-5 cells; format: cell-based; details: lung cell lines (A549-ACE2 and MRC5)
[8] = system: SARS-CoV-2 USA-WA1/2020; experiment: In vitro drug efficacy in A549+ACE2 cells; format: cell-based
[9] = system: SARS-CoV-2 USA-WA1/2020; experiment: microbe, parasite or virus in culture; format: cell-based
[10] = system: SARS-CoV-2; experiment: Efficacious target concentration and human dose projection; details: across a range of in vitro antiviral assays
[11] = system: cytochrome P450 enzymes; details: human, microsomes
[12] = rat, dog, monkey, in vivo
[13] = human
[14] = physchem; details: 25 °C, pH 5, aqueous buffer, thermodynamic from solid, PF-00835321 Saturated Solubility
[15] = physchem; details: organic solvent or mixture, thermodynamic from solid
[16] = biological target: SARS-CoV-2 3CLpro (Severe acute respiratory syndrome coronavirus 2, UniProt P0DTD1); experiment: Thermal-shift assay; details: n=8; 55.9+/−[…] C. (n=16) without compound
[17] = Intravenous pharmacokinetics; details: rat, dog, monkey, in vivo, 2 mg/kg
[18] = system: SARS-CoV-2; experiment: microbe, parasite or virus in culture
[19] = Plasma protein binding by equilibrium dialysis
[20] = Admixture physical stability in 0.9% w/v sodium chloride; details: 25° C.
[21] = Saturated solubility in co-solvent/co-solvent/water mixtures (F3); details: 25 °C, pH 5, aqueous buffer, thermodynamic from solid, PF-00835321 Saturated Solubility, pH 5, 5 mM citrate, PEG400 0.75, Ethanol […] v/v
[22] = 2.5x dilution in 0.9% w/v sodium chloride
[23] = 10x dilution in 0.9% w/v sodium chloride

229E-CoV-2 3CLpro, sequence (P0C6X1 2966-3267): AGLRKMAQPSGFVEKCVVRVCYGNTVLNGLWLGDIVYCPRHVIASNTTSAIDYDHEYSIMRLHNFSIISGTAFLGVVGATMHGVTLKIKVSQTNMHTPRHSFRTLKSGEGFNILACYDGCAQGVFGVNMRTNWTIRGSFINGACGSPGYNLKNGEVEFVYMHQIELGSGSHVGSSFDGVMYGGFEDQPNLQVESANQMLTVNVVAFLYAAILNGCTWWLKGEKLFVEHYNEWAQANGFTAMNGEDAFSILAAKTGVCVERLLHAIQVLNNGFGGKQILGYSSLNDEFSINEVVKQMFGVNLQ
NL63-CoV 3CLpro, sequence (P0C6X5 2940-3242): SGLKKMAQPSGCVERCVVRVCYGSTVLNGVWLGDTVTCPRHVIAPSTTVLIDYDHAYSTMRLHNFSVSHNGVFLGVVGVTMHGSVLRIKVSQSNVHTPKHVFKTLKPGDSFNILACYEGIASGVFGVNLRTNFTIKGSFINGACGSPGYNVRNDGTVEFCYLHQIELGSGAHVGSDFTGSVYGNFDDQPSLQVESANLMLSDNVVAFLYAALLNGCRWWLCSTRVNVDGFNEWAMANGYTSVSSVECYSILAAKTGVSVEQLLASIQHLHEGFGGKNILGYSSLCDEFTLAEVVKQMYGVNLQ
Human Elastase, sequence (P08246 30-247): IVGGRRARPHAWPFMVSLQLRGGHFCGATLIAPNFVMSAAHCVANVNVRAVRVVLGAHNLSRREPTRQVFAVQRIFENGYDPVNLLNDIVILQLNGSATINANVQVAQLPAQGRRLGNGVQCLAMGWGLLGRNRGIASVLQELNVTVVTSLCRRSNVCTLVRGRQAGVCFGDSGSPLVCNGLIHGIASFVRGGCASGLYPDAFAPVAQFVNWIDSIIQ

Structure (SMILES): COc1cccc2[nH]c(C(=O)N[C@@H](CC(C)C)C(=O)N[C@@H](C[C@@H]3CCNC3=O)C(=O)CO)cc12 [PF-00835231]
- Ki [1]: 0.8 ± 0.5 nM
- Ki [2]: 1.5 ± 0.8 nM
- margin of activity against human cathepsin B compared to 3CLpro [3]: 1000 fold
- IC50 [4]: > 33300 nM
- IC50 [5]: > 100000 nM
- EC50 ([6]; Severe acute respiratory syndrome coronavirus 2, VeroE6-enACE2 cells, in the presence of the P-gp inhibitor, quoted for the EC50/EC90 difference, read-out: EC50): 0.48 µM
- EC90 ([6]; Severe acute respiratory syndrome coronavirus 2, Vero-cell lines, P-gp inhibitor added): 480 to 1600 nM
- difference between EC50 and EC90 ([6]; both Vero cell types): 2-3 fold
- EC50 ([6]; read-out: EC50 μM GeoMean): 0.23 µM
- difference in antiviral potency in the presence and absence of P-gp inhibitor [7]: no significant difference in antiviral potency
- EC50 ([8]; Severe acute respiratory syndrome coronavirus 2, A549-ACE2, 24 h): 221 nM
- EC90 ([8]; Severe acute respiratory syndrome coronavirus 2, A549-ACE2, 24 h, read-out: EC90): 734 nM
- EC50 ([8]; Severe acute respiratory syndrome coronavirus 2, A549-ACE2, 48 h): 158 nM
- EC90 ([8]; Severe acute respiratory syndrome coronavirus 2, A549-ACE2, 48 h, read-out: EC90): 439 nM
- EC90 ([8]; Severe acute respiratory syndrome coronavirus 2, A549-ACE2, dose response assay in human lung carcinoma cells, read-out: average EC90): 440 nM
- SARS-CoV-2 viral infectious titers in apical washes ([9]; 10 μM doses): viral titers below the limit of 366 detection at most time points
- SARS-CoV-2 viral infectious titers in apical washes ([9]; 0.025, 0.5 or 10 μM in basolateral chamber, washes at 12-hour increments): potently inhibit SARS-CoV-2 titers in a dose-dependent manner
- EC90 ([9]; Severe acute respiratory syndrome coronavirus 2, primary human airway epithelial model, antiviral time course, preliminary data, read-out: unbound EC90): < 500 nM
- Hill coefficient (m), slope of the dose response curve [10]: 3
- Solid Form at 4° C. (pH 3): No Change-Hydrate
- Solid Form at 4° C. (pH 5): No Change-Hydrate
- Solid Form at 4° C. (pH 7): No Change-Hydrate
- unbound CIint [11]: 14 µL/min/mg
- eliminated unchanged in the urine [12]: approximately 10%
- predicted half-life [13]: approximately 2 h
- predicted plasma clearance (CLp) [13]: ~6 mL/min/kg
- solubility at 48 h [14]: 200 µg/mL (≈ 423 µM)
- solubility [15]: ≥ 200000 µg/mL
- melting temperature (Tm) of SARS-CoV-2 3CLpro with compound bound [16]: 70.5+/−0.12 °C
- half-life [17]: < 1.5 h
- EC90 ([18]; Severe acute respiratory syndrome coronavirus 2, HeLa-ACE2, HELA-ACE2, remdesivir concentration 0): 433 nM
- EC90 ([18]; Severe acute respiratory syndrome coronavirus 2, HeLa-ACE2, HELA-ACE2, remdesivir concentration 48 (nm in FIG. 5A legend)): 123 nM
- EC90 ([18]; Severe acute respiratory syndrome coronavirus 2, HeLa-ACE2, HELA-ACE2, remdesivir concentration 95 (nm in FIG. 5A legend)): 54.5 nM
- EC90 ([18]; Severe acute respiratory syndrome coronavirus 2, HeLa-ACE2, HELA-ACE2, remdesivir concentration 190 (nm in FIG. 5A legend)): < 0.78 nM
- fraction unbound [19]: 0.26 to 0.46
- Assay - 0 days [20, 22]: 2.3 mg/mL and 2.2 mg/mL
- Assay - 3 days [20, 22]: 2.3 mg/mL and 2.2 mg/mL
- Total Impurities - 0 days [20, 22]: 1.23 % peak area and 1.20 % peak area
- Total Impurities - 3 days [20, 22]: 1.38 % peak area and 1.37 % peak area
- Assay - 0 days [20, 23]: 0.6 mg/mL
- Assay - 3 days [20, 23]: 0.6 mg/mL
- Total Impurities - 0 days [20, 23]: 1.20 % peak area
- Total Impurities - 3 days [20, 23]: 1.33 % peak area
- Assay - 0 days ([20]; No dilution): 5.8 mg/mL and 5.6 mg/mL
- Assay - 3 days ([20]; No dilution): 5.8 mg/mL and 5.7 mg/mL
- Total Impurities - 0 days ([20]; No dilution): 1.25 % peak area
- Total Impurities - 3 days ([20]; No dilution): 1.44 % peak area and 1.48 % peak area
- solubility at 48 h [21]: 100 µg/mL (≈ 212 µM)
